The conditions of series [1]: parent ethacrynic acid, comparison value; cited from earlier work.
Series [2] is described as follows: PET imaging of the liver of the TAA-treated CCA rat. The format is in vivo. As to conditions: CCA rat receiving TAA for 18 weeks. Here is the method: The rats were anesthetized using 1 L/min 2% isoflurane (100% oxygen). After the rats had been anesthetized, they were given ^18F-FBuEA (11 MBq) via the lateral tail vein. After the injection, the rats were fixed in the prone position on a carbon bed.
Dynamic imaging (0-120 min) single-frame scans were acquired with a small-animal PET camera (microPET R4; Concorde Microsystems Inc.). The region of interest (ROI) was disposed in the tumor region by hand, the image reconstructions of ROI were processed with ASIPro software (Concorde Microsystems INC.). Using microPET, the tumor volumes were determined by the intake of ^18F-FBuEA (% ID/g).
Being a promising imaging probe, [^18F]FBuEA should be capable of detecting a disease at its early stage. […] Then the CCA rat along with the normal rat was subsequently imaged with [^18F]FBuEA 5 days later. […] The same CCA rat after feeding for 23 weeks of TAA was imaged again with [^18F]FBuEA but the imaging time was shortened to 5-10 min for optimization test (FIG. 11(D) and (E)). Whereas the tumor lesion was still dark and the cold spot was similar to that of 18 week rat. From the above comparisons, the optimized imaging sampling times appeared to be 0-30 min.

Series [3] concerns HEL cells. Nature of the series: trypan blue exclusion assay, cell viability after FBuEA treatment. It counts as cell-based, human. The conditions noted are these: 48 hr, read-out: IC50 (concentration required to decrease 50% cell viability). The protocol: (§1) Human lung cancer cell line A549, human erythroleukemia cell line (HEL) and human embryonic kidney 293T cell line were cultivated in the RPMI-1640 medium (GIBCO) supplemented with 10% fetal bovine serum, 100 U/mL penicillin, 0.1 mg/mL streptomycin and 2 mM L-glutamine (GIBCO) at 37° C. in 5% CO2 incubator. 293T was a non-tumorigenic cell line as a […] control in cell viability experiment.
(§2) To detect the cytotoxicity effects of FBuEA (compound of formula 10), A549 and HEL were treated with different concentration of FBuEA for 48 hr and compared with 293T. For the cytotoxicity study, trypan blue exclusion assay was performed to quantity the cell viability, 5×10^4 cells and the medium with different concentration of FBuEA (from 0 to 20 µM) were loaded in the 48-well plates for 48 hr. After 48 hr, cells mixed with trypan blue (GIBICO), just count the cells that have excluded the dye. Each count repeated three times and calculated the average of concentration. The cytotoxicity effects of EBuEA to A549, HEL and 293T cells were indicated by IC50 value (comparing with untreated cells, the concentration of EBuEA required to decrease 50% cell viability).

Series [4] relates to A549 cells. The series is described as above. It counts as cell-based, human. The conditions noted are these: 48 hr, read-out: IC50 (concentration required to decrease 50% cell viability). Here is the method: as §1, §2
For series [5], the system named is 293T cells. The description is as above. The format is cell-based, human. As to conditions: 48 hr, read-out: IC50 (concentration required to decrease 50% cell viability). Here is the method:
as §1, §2

pIC50: −log10 of the molar value.

For `C=C(CC)C(=O)c1ccc(OCC(=O)O)c(Cl)c1Cl` [ethacrynic acid], in series [1], the plasma half-life was 30 to 60 min.

Turning to `OC[C@H]1OC(O)[C@H]([18F])[C@@H](O)[C@@H]1O` (some centres unmarked) [[^18F]FDG, [^18F]fluorodeoxyglucose, reference compound], the “PET signal at the tumor lesion” value in series [2] is given as “significant hot spot”. As for `C=C(CC)C(=O)c1ccc(OCC(=O)NCCCCF)c(Cl)c1Cl` [FBuEA, N-(4-fluorobutyl)ethacrynic amide], the pIC50 in series [3] is 5.30; in series [4], 4.85; in series [5], 4.70.

The record behind these values is US20130156701A1, “METHOD OF PREPARING ETHACRYNIC AMIDE DERIVATIVES AND APPLICATION THEREOF” (NATIONAL TSING HUA UNIVERSITY, priority 2011, published 2013).
